According to patent US20240409585A1, “MACROCYCLIC IMMUNOMODULATORS” (priority 2021, published 2024):
Like-named read-outs stand apart in the source and are kept apart here. Numbered stars: 1 amine (or outer) side, 2 acyl side, 3 side chain; on linkers, the order of the positions; unused ones are H or OH. Bridge positions count the residues as written; N and C are the ends. Square brackets hold non-standard residues; d marks the D form. Peptide text beside a SMILES is read from it. * marks the point of attachment. Bip(4'-NHAc) = CC(=O)Nc1ccc(-c2ccc(C[C@H](N)C(=O)O)cc2)cc1; Phe(4-CH2CH2COOH) = N[C@@H](Cc1ccc(CCC(=O)O)cc1)C(=O)O; Phe(3-CF3) = N[C@@H](Cc1cccc(C(F)(F)F)c1)C(=O)O; X8 = N=C(N)NCc1cccc(C[C@H](N[*:1])C(=O)[*:2])c1; Ala(morpholin-4-yl) = N[C@@H](CN1CCOCC1)C(=O)O; Phe(4-COOH) = N[C@@H](Cc1ccc(C(=O)O)cc1)C(=O)O; Phe(3,5-F2) = N[C@@H](Cc1cc(F)cc(F)c1)C(=O)O; Bip = N[C@@H](Cc1ccc(-c2ccccc2)cc1)C(=O)O; Phe(4-Cl) = N[C@@H](Cc1ccc(Cl)cc1)C(=O)O; Abu(3R-NH2) = C[C@@H](N)[C@H](N)C(=O)O; Phe(3-Me) = Cc1cccc(C[C@H](N)C(=O)O)c1; Dap(CONH2) = NC(=O)NC[C@H](N)C(=O)O; hPhe = N[C@@H](CCc1ccccc1)C(=O)O; 3Pal = N[C@@H](Cc1cccnc1)C(=O)O; Cha = N[C@@H](CC1CCCCC1)C(=O)O; Carboxymethyl = O=C(O)C*; NMeA = CN[C@@H](C)C(=O)O; Orn = NCCC[C@H](N)C(=O)O; Dab = NCC[C@H](N)C(=O)O; Nva = CCC[C@H](N)C(=O)O

Legend:
[1] = target: T1, Alexa fluor-647 labeled human PD-L1-Ig binding to Jurkat cell line over-expressing human PD-1 (Homo sapiens, UniProt Q15116); test: Jurkat-PD-1 Cell Binding High-Content Screening Assay (CBA): Method 3 (Alexa fluor-647 labeled PD-L1-Ig); details: Jurkat-PD-1 cells, Alexa fluor-647 labeled PD-L1-Ig 177 nM
T1 construct: expressed in transfected cells; host or cells: Jurkat
Procedure, shortened: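 Readout by high-content imaging of PFA-fixed, Hoechst-stained cells after 1 h with 177 nM (final) Alexa fluor-647 PD-L1-Ig. Compound was added first to hPD-1 Jurkat cells in RPMI plus 10% FCS for 2 h at 37 °C.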

[2] = target: T2, PD1-PDL1 protein-protein binding interaction [hPD1(25-167)-hIgG, hPD-L1 (19-239)-6xHis] (Homo sapiens, UniProt Q15116); test: HTRF Assay (TR-FRET); details: 5 nM hPD1-hIgG, 5 nM hPD-L1-6xHis, 24 hours at 25° C.
T2 construct: hPD1(25-167)-hIgG, BMS
Protocol: A time-resolved fluorescence resonance energy transfer (TR-FRET) assay was employed to measure the inhibition of the PD1-PDL1 protein-protein binding interaction. The reaction buffer was prepared by mixing the HiBlock buffer and LANCE detection buffer (PerkinElmer, TRF1011F and CR97-100) at a 1:1 ratio. Assay reactions contained 5 nM human programmed cell death 1 [hPD1(25-167)-hIgG, BMS], 5 nM human programmed cell death ligand 1 [hPD-L1 (19-239)-6×His, BMS], in the presence of 1 nM LANCE Eu-W1024 Anti-Human IgG (Eu-anti hIgG, PerkinElmer, AD0074) and 20 nM SureLight Allophycocyanin-anti-6×His antibody (APC-anti-6×His, PerkinElmer, AD0059H). Test compounds were evaluated in a 10-point dose-response format with serial three-fold dilutions starting from a 2 uM top concentration. Reactions were carried out in a total volume of 10 uL in 384-well microtiter plates (Proxiplate white, PerkinElmer, 6008289). Plates were sealed and incubated for 24 hours at 25° C. After 24 hours, the TR-FRET signal was measured using a PerkinElmer EnVision multimode plate reader and the resulting ratiometric data set (signal at 665 nm/615 nm, multiplied by a factor of 10,000) was recorded. The concentration giving half-maximal inhibition (the IC50) was obtained by fitting the data to a four-parameter logistic equation using Graphpad Prism or Dotmatics.

[3] = head μM, read-out: CBA Method 3 μM

T1 sequence (Q15116 25-288): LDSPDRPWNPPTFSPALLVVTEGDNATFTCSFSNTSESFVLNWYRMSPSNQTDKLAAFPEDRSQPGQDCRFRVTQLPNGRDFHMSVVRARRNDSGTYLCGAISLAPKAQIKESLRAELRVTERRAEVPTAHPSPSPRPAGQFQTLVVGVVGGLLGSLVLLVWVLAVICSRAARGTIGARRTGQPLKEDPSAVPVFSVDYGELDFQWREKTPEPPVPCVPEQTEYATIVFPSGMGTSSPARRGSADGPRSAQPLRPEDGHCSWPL
T2 sequence (Q15116 25-167): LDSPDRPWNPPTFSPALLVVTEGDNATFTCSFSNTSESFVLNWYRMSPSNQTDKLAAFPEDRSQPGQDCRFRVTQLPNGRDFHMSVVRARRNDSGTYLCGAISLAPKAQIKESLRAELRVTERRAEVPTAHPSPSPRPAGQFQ

| SMILES | IC50 [1, 3] [µM] | IC50 ([2]; head μM) [µM] | IC50 ([1]; nM, read-out: CBA Method 3) [µM] | IC50 ([2]; nM) [µM] |
| --- | --- | --- | --- | --- |
| CC(C)C[C@H]1NC(=O)[C@H](C)N(C)C(=O)[C@H](CCC(N)=O)NC(=O)[C@H](Cc2ccc(-c3ccccc3)cc2)NC(=O)[C@H](CCc2ccccc2)NC(=O)[C@H](Cc2cccc(C(F)(F)F)c2)NC(=O)[C@H](CC(=O)O)NC(=O)[C@H](Cc2ccc(O)cc2)NC(=O)[C@H]([C@@H](C)N)NC(=O)CSC[C@@H](C(=O)N[C@@H](CCN)C(N)=O)NC(=O)[C@H](CCCN)NC(=O)[C@H](C(C)C)NC(=O)[C@H](CC2CCCCC2)NC(=O)[C@H](CCN)NC1=O [Example 5236] ({CH2CO}-[Abu(3R-NH2)]YD[Phe(3-CF3)][hPhe][Bip]Q[NMeA][dL][Dab][Cha]V[Orn]C[Dab]-NH2; thioether N-14) | – | 0.1 | 0.0011 | – |
| Cc1cccc(C[C@@H]2NC(=O)[C@H](CC(=O)O)NC(=O)[C@H](Cc3ccc(OCC(=O)O)cc3)NC(=O)[C@H](Cc3cccc(CNC(=N)N)c3)NC(=O)CSC[C@@H](C(=O)N[C@@H](CCN)C(N)=O)NC(=O)[C@H](CCCN)NC(=O)[C@H](C(C)C)NC(=O)[C@H](CC3CCCCC3)NC(=O)[C@H](CCN)NC(=O)[C@@H](CC(C)C)NC(=O)[C@H](C)N(C)C(=O)[C@H](CCC(N)=O)NC(=O)[C@H](Cc3ccc(-c4ccccc4)cc3)NC(=O)[C@H](Cc3ccc(C(=O)O)cc3)NC2=O)c1 [Example 5279] ({CH2CO}-[X8]Y(Carboxymethyl)D[Phe(3-Me)][Phe(4-COOH)][Bip]Q[NMeA][dL][Dab][Cha]V[Orn]C[Dab]-NH2; thioether N-14) | – | 0.015 | 0.003 | – |
| Cc1cccc(C[C@@H]2NC(=O)[C@H](CC(=O)O)NC(=O)[C@H](Cc3ccc(OCC(=O)O)cc3)NC(=O)[C@H](CN3CCOCC3)NC(=O)CSC[C@@H](C(=O)N[C@@H](CCN)C(N)=O)NC(=O)[C@H](CCC(N)=O)NC(=O)[C@H](C(C)C)NC(=O)[C@H](CC3CCCCC3)NC(=O)[C@H](CCN)NC(=O)[C@@H](CC(C)C)NC(=O)[C@H](C)N(C)C(=O)[C@H](CCC(N)=O)NC(=O)[C@H](Cc3ccc(-c4ccccc4)cc3)NC(=O)[C@H](CCc3ccccc3)NC2=O)c1 [Example 5221] ({CH2CO}-[Ala(morpholin-4-yl)]Y(Carboxymethyl)D[Phe(3-Me)][hPhe][Bip]Q[NMeA][dL][Dab][Cha]VQC[Dab]-NH2; thioether N-14) | – | 0.01 | 0.003 | – |
| CC(C)C[C@H]1NC(=O)[C@H](C)N(C)C(=O)[C@H](CCC(N)=O)NC(=O)[C@H](Cc2ccc(-c3ccccc3)cc2)NC(=O)[C@H](CCc2ccccc2)NC(=O)[C@H](Cc2cccc(C(F)(F)F)c2)NC(=O)[C@H](CC(=O)O)NC(=O)[C@H](Cc2cccnc2)NC(=O)[C@H]([C@@H](C)N)NC(=O)CSC[C@@H](C(=O)N[C@@H](CCN)C(N)=O)NC(=O)[C@H](CCCN)NC(=O)[C@H](C(C)C)NC(=O)[C@H](CC2CCCCC2)NC(=O)[C@H](CCN)NC1=O [Example 5244] ({CH2CO}-[Abu(3R-NH2)][3Pal]D[Phe(3-CF3)][hPhe][Bip]Q[NMeA][dL][Dab][Cha]V[Orn]C[Dab]-NH2; thioether N-14) | – | 0.03 | 0.0064 | – |
| CC(=O)Nc1ccc(-c2ccc(C[C@@H]3NC(=O)CSC[C@@H](C(=O)N[C@@H](CCN)C(N)=O)NC(=O)[C@H](CCCN)NC(=O)[C@H](C(C)C)NC(=O)[C@H](CC4CCCCC4)NC(=O)[C@H](CCN)NC(=O)[C@@H](CC(C)C)NC(=O)[C@H](C)N(C)C(=O)[C@H](CCC(N)=O)NC(=O)[C@H](Cc4ccc(-c5ccccc5)cc4)NC(=O)[C@H](Cc4ccc(C(=O)O)cc4)NC(=O)[C@H](Cc4cccc(C)c4)NC(=O)[C@H](CC(=O)O)NC(=O)[C@H](Cc4ccc(OCC(=O)O)cc4)NC3=O)cc2)cc1 [Example 5173] ({CH2CO}-[Bip(4'-NHAc)]Y(Carboxymethyl)D[Phe(3-Me)][Phe(4-COOH)][Bip]Q[NMeA][dL][Dab][Cha]V[Orn]C[Dab]-NH2; thioether N-14) | 0.02 | 0.07 | – | – |
| CC(C)C[C@H]1NC(=O)[C@H](C)N(C)C(=O)[C@H](CCC(N)=O)NC(=O)[C@H](Cc2ccc(-c3ccccc3)cc2)NC(=O)[C@H](CCc2ccccc2)NC(=O)[C@H](Cc2cccc(C(F)(F)F)c2)NC(=O)[C@H](CC(=O)O)NC(=O)[C@H](CCC(N)=O)NC(=O)[C@H](CN2CCOCC2)NC(=O)CSC[C@@H](C(=O)N[C@@H](CCN)C(N)=O)NC(=O)[C@H](CCCN)NC(=O)[C@H](C(C)C)NC(=O)[C@H](CC2CCCCC2)NC(=O)[C@H](CCN)NC1=O [Example 5245] ({CH2CO}-[Ala(morpholin-4-yl)]QD[Phe(3-CF3)][hPhe][Bip]Q[NMeA][dL][Dab][Cha]V[Orn]C[Dab]-NH2; thioether N-14) | 0.01 | 0.01 | – | – |
| CC(C)C[C@H]1NC(=O)[C@H](C)N(C)C(=O)[C@H](CCC(N)=O)NC(=O)[C@H](Cc2ccc(-c3ccccc3)cc2)NC(=O)[C@H](CCc2ccccc2)NC(=O)[C@H](Cc2cccc(C(F)(F)F)c2)NC(=O)[C@H](CC(=O)O)NC(=O)[C@H](Cc2cccnc2)NC(=O)[C@H](CN2CCOCC2)NC(=O)CSC[C@@H](C(=O)N[C@@H](CCN)C(N)=O)NC(=O)[C@H](CCCN)NC(=O)[C@H](C(C)C)NC(=O)[C@H](CC2CCCCC2)NC(=O)[C@H](CCN)NC1=O [Example 5243] ({CH2CO}-[Ala(morpholin-4-yl)][3Pal]D[Phe(3-CF3)][hPhe][Bip]Q[NMeA][dL][Dab][Cha]V[Orn]C[Dab]-NH2; thioether N-14) | – | 0.03 | 0.0022 | – |

More lines, now with the values ahead:

| IC50 [1, 3] [µM] | IC50 ([2]; head μM) [µM] | IC50 ([1]; nM, read-out: CBA Method 3) [µM] | IC50 ([2]; nM) [µM] | SMILES |
| --- | --- | --- | --- | --- |
| 0.2 | 0.01 | – | – | Cc1cccc(C[C@@H]2NC(=O)[C@H](CC(=O)O)NC(=O)[C@H](Cc3ccc(OCC(=O)O)cc3)NC(=O)[C@H](Cc3cc(F)cc(F)c3)NC(=O)CSC[C@@H](C(=O)N[C@@H](CCN)C(N)=O)NC(=O)[C@H](CCCN)NC(=O)[C@H](C(C)C)NC(=O)[C@H](CC3CCCCC3)NC(=O)[C@H](CCN)NC(=O)[C@@H](CC(C)C)NC(=O)[C@H](C)N(C)C(=O)[C@H](CCC(N)=O)NC(=O)[C@H](Cc3ccc(-c4ccccc4)cc3)NC(=O)[C@H](Cc3ccc(C(=O)O)cc3)NC2=O)c1 [Example 5284] ({CH2CO}-[Phe(3,5-F2)]Y(Carboxymethyl)D[Phe(3-Me)][Phe(4-COOH)][Bip]Q[NMeA][dL][Dab][Cha]V[Orn]C[Dab]-NH2; thioether N-14) |
| – | 0.08 | 0.001 | – | Cc1cccc(C[C@@H]2NC(=O)[C@H](CC(=O)O)NC(=O)[C@H](Cc3ccc(OCC(=O)O)cc3)NC(=O)[C@H](Cc3ccc(Cl)cc3)NC(=O)CSC[C@@H](C(=O)N[C@@H](CCN)C(N)=O)NC(=O)[C@H](CCCN)NC(=O)[C@H](C(C)C)NC(=O)[C@H](CC3CCCCC3)NC(=O)[C@H](CCN)NC(=O)[C@@H](CC(C)C)NC(=O)[C@H](C)N(C)C(=O)[C@H](CCC(N)=O)NC(=O)[C@H](Cc3ccc(-c4ccccc4)cc3)NC(=O)[C@H](Cc3ccc(C(=O)O)cc3)NC2=O)c1 [Example 5288] ({CH2CO}-[Phe(4-Cl)]Y(Carboxymethyl)D[Phe(3-Me)][Phe(4-COOH)][Bip]Q[NMeA][dL][Dab][Cha]V[Orn]C[Dab]-NH2; thioether N-14) |
| – | 0.01 | 0.0005 | – | Cc1cccc(C[C@@H]2NC(=O)[C@H](CC(=O)O)NC(=O)[C@H](Cc3ccc(CCC(=O)O)cc3)NC(=O)[C@H](CNC(N)=O)NC(=O)CSC[C@@H](C(=O)N[C@@H](CCN)C(N)=O)NC(=O)[C@H](CCCN)NC(=O)[C@H](C(C)C)NC(=O)[C@H](CC3CCCCC3)NC(=O)[C@H](CCN)NC(=O)[C@@H](CC(C)C)NC(=O)[C@H](C)N(C)C(=O)[C@H](CCC(N)=O)NC(=O)[C@H](Cc3ccc(-c4ccccc4)cc3)NC(=O)[C@H](Cc3ccc(C(=O)O)cc3)NC2=O)c1 [Example 5298] ({CH2CO}-[Dap(CONH2)][Phe(4-CH2CH2COOH)]D[Phe(3-Me)][Phe(4-COOH)][Bip]Q[NMeA][dL][Dab][Cha]V[Orn]C[Dab]-NH2; thioether N-14) |
| – | – | – | 0.0023 | CCC[C@@H]1NC(=O)CSC[C@@H](C(=O)N[C@@H](CCN)C(N)=O)NC(=O)[C@H](CCCN)NC(=O)[C@H](C(C)C)NC(=O)[C@H](CC2CCCCC2)NC(=O)[C@H](CCN)NC(=O)[C@@H](CC(C)C)NC(=O)[C@H](C)N(C)C(=O)[C@H](CCC(N)=O)NC(=O)[C@H](Cc2ccc(-c3ccccc3)cc2)NC(=O)[C@H](Cc2ccc(C(=O)O)cc2)NC(=O)[C@H](Cc2cccc(C)c2)NC(=O)[C@H](CC(=O)O)NC(=O)[C@H](Cc2ccc(OCC(=O)O)cc2)NC1=O [Example 5297] ({CH2CO}-[Nva]Y(Carboxymethyl)D[Phe(3-Me)][Phe(4-COOH)][Bip]Q[NMeA][dL][Dab][Cha]V[Orn]C[Dab]-NH2; thioether N-14) |
